Test results published in patent US8222020B2, “Biologically pure strain of Lactobacillus fermentum, strain Ess-1” (SCA Hygiene Products AB, priority 2006, dated 2012).

Test system: C. albicans
Assay: Screening II: Candida growth in Lactobacillus cell-free filtrate (LCF), visual turbidity scale 5 to 0
Type: cell-based, Candida albicans
Conditions: acids 50 mM, salts 0.3%; 20 hours at 37° C.
Excerpt: Clinical isolates of Candida albicans and Candida glabrata were used as test strains. These were isolated from the vagina of women with vaginal candidiasis and from healthy females. Suspensions of lactobacilli grown in dMRSs broth (MRS broth without addition of sodium acetate) were centrifuged and sterile filtered. The filtrate is henceforth called Lactobacillus Cell-free Filtrate, LCF. A specified volume was transferred to wells of a micro titre plate and was let to air dry and thereafter resuspended in sterile distilled water to a concentration three times higher and transferred to 96-wells micro titre plates. Candida was added to all vials (three isolates of C. albicans and C. glabrata, respectively, were used). The inhibition was evaluated by visual observation of turbidity and graduated by two persons using a template on a scale from five to zero. […] The plates were incubated for 20 hours at 37° C. and the candida growth in the vials was visually evaluated and graduated from five to zero. […] The inhibition was evaluated by visual observation of turbidity and graduated by two persons using a template on a scale from five to zero. […] The plates were incubated for 20 hours at 37° C. and the candida growth in the wells was visually evaluated and graduated from five to zero.

Row | Compound | effect of acids and acid salts on the growth of C. albicans
1 | CCC(=O)[O-].[Na+] [Sodium propionate] | most extended effect
2 | CCC(=O)O [propionic acid] | most extended effect
